According to patent US20240277698A1, “METHODS OF USING ALDOSTERONE SYNTHASE INHIBITORS” (CINCOR PHARMA, INC., priority 2021, published 2024):

Legend:
[1] = Relative bioavailability of tablet versus oral solution, single 5 mg dose; type: in vivo, human; settings: for AUC(0-inf) / AUC(0-t) / Cmax: 5 mg
Description: The relative bioavailability of the tablet formulation intended for use in future clinical studies as compared to the oral solution of (R)-compound 1 administered in the SAD and MAD was assessed following a single 5 mg dose of each formulation. Mean (+SD [standard deviation]) plasma concentration-time profiles following administration of the oral solution and tablet formulations are presented in FIG. 9.
Mean (SD) PK parameters of (R)-compound 1 following administration of the oral solution and tablet formulations are presented in Table 12.

[2] = Single-ascending dose (SAD) study in healthy subjects: plasma and urine pharmacokinetics; settings: human, in vivo
Description: A second, generally lower peak was often observed at 3 to 4 hours postdose.
A second, generally lower peak was often observed at 3 to 4 hours post-dose. […] Over the anticipated therapeutically relevant dose range (through 10 mg), peak and overall exposures (as assessed by Cmax and area under the concentration-time curve [AUC]) increased in a generally dose-proportional manner.
Single- and Multiple-Dose Plasma Pharmacokinetics of (R)-compound 1. The single- and multiple-dose PK profiles of (R)-compound 1 have been characterized in healthy subjects in the Phase 1 studies. FIG. 7 depicts the mean plasma concentration versus time profiles of (R)-compound 1 after administration of single oral doses of (R)-compound 1 ranging from 1 mg to 360 mg (under low salt conditions) and at steady-state over the range of 0.5 mg to 5 mg (under low and/or normal salt conditions). After oral administration, (R)-compound 1 is rapidly absorbed with peak concentrations observed within 3 hours after dosing (range 0.5 to 4 hours).

CCC(=O)N[C@@H]1CCCc2c(-c3ccc4c(c3)CCC(=O)N4C)cncc21 [(R)-Compound 1, (R)—N-(4-(1-methyl-2-oxo-1,2,3,4-tetrahydroquinolin-6-yl)-5,6,7,8-tetrahydroisoquinolin-8-yl)propionamide]
AUC(0-inf) ([1]; human, plasma, oral, tablet, read-out: AUC0-inf, GM (Geo. CV %)): 1670 ng·h/mL | AUC(0-inf) ([1]; human, plasma, oral, tablet, read-out: AUC0-inf, Geo. LS Mean): 1720 ng·h/mL | AUC(0-inf) ([1]; human, plasma, oral, tablet, read-out: AUC0-inf, Mean): 1720 ng·h/mL | AUC(0-t) ([1]; human, plasma, oral, tablet, read-out: AUC0-t, GM (Geo. CV %)): 1580 ng·h/mL | AUC(0-t) ([1]; human, plasma, oral, tablet, read-out: AUC0-t, Geo. LS Mean): 1620 ng·h/mL | AUC(0-t) ([1]; human, plasma, oral, tablet, read-out: AUC0-t, Mean): 1620 ng·h/mL | Cmax ([1]; human, plasma, oral, tablet, read-out: Cmax, GM (Geo. CV %)): 52.3 ng/mL | Cmax ([1]; human, plasma, oral, tablet, read-out: Cmax, Geo. LS Mean): 52.8 ng/mL | Cmax ([1]; human, plasma, oral, tablet, read-out: Cmax, Mean (SD)): 53.1 ng/mL | Tmax ([1]; human, plasma, oral, tablet, read-out: Tmax, Median (min, max)): 3 h | AUC(0-inf) ([1]; human, plasma, po, oral solution, read-out: AUC0-inf, GM (Geo. CV %)): 1710 ng·h/mL | AUC(0-inf) ([1]; human, plasma, po, oral solution, read-out: AUC0-inf, Geo. LS Mean): 1680 ng·h/mL | AUC(0-inf) ([1]; human, plasma, po, oral solution, read-out: AUC0-inf, Mean): 1750 ng·h/mL | AUC(0-t) ([1]; human, plasma, po, oral solution, read-out: AUC0-t, GM (Geo. CV %)): 1610 ng·h/mL | AUC(0-t) ([1]; human, plasma, po, oral solution, read-out: AUC0-t, Geo. LS Mean): 1580 ng·h/mL | AUC(0-t) ([1]; human, plasma, po, oral solution, read-out: AUC0-t, Mean): 1650 ng·h/mL | Cmax ([1]; human, plasma, po, oral solution, read-out: Cmax, GM (Geo. CV %)): 52.7 ng/mL | Cmax ([1]; human, plasma, po, oral solution, read-out: Cmax, Geo. LS Mean): 52.1 ng/mL | AUCextrapolated, GM (Geo. CV %) ([1]; oral solution): 5.018 (56.4) % | AUCextrapolated, Mean (SD) ([1]; oral solution): 5.565 (2.2131) % | Cmax, Mean (SD) ([1]; oral solution): 53.886 (11.6813) ng/mL | Tmax, Median (min, max) ([1]; oral solution): 2.500 (1.00, 3.50) h | AUCextrapolated, GM (Geo. CV %) ([1]; tablet): 4.995 (59.7) % | AUCextrapolated, Mean (SD) ([1]; tablet): 5.600 (2.3669) % | AUC0-inf, Ratio of Geo. LS Means (tablet/solution) ([1]; tablet versus oral solution): 102.2% | AUC0-t, Ratio of Geo. LS Means (tablet/solution) ([1]; tablet versus oral solution): 102.2% | Cmax, Ratio of Geo. LS Means (tablet/solution) ([1]; tablet versus oral solution): 101.2% | CL renal [2]: 4.63 to 7.38 mL/min | Renal clearance as share of total plasma clearance, average [2]: 15.5% | Renal clearance as share of total plasma clearance, range of individual values [2]: 6.53-31.8% | fraction unbound [2]: 0.26 | dose recovered unchanged in the urine ([2]; po): Approximately 110% | half-life ([2]; po): 25 to 31 h | median time (tmax) to maximum observed concentration (Cmax) ([2]; po): 0.5 to 2 h | second, generally lower peak, time postdose ([2]; po): 3 to 4 h | time to peak concentrations, range ([2]; po): 0.5 to 4 h | AUC(0-inf) ([2]; po, 1 mg): 330 ng·h/mL | AUC(0-t) ([2]; po, 1 mg): 147 ng·h/mL | AUCextrapoloated ([2]; po, 1 mg): 1.66% | CL/F ([2]; po, 1 mg): 3270 mL/h | Cmax ([2]; po, 1 mg): 10.1 ng/mL | Tmax ([2]; po, 1 mg): 1 h | Vd/F ([2]; po, 1 mg): 122 L | half-life ([2]; po, 1 mg): 27.4 h | AUC(0-inf) ([2]; po, 3 mg): 1070 ng·h/mL | AUC(0-t) ([2]; po, 3 mg): 491 ng·h/mL | AUCextrapoloated ([2]; po, 3 mg): 1.68% | CL/F ([2]; po, 3 mg): 2820 mL/h | Cmax ([2]; po, 3 mg): 31.9 ng/mL | Tmax ([2]; po, 3 mg): 2 h | Vd/F ([2]; po, 3 mg): 117 L | half-life ([2]; po, 3 mg): 29.1 h | AUC(0-inf) ([2]; po, 10 mg): 3630 ng·h/mL | AUC(0-t) ([2]; po, 10 mg): 1600 ng·h/mL | AUCextrapoloated ([2]; po, 10 mg): 1.37% | CL/F ([2]; po, 10 mg): 2820 mL/h | Cmax ([2]; po, 10 mg): 125 ng/mL | Tmax ([2]; po, 10 mg): 0.5 h | Vd/F ([2]; po, 10 mg): 123 L | half-life ([2]; po, 10 mg): 30.7 h | AUC(0-inf) ([2]; po, 30 mg): 11000 ng·h/mL | AUC(0-t) ([2]; po, 30 mg): 5260 ng·h/mL | AUCextrapoloated ([2]; po, 30 mg): 0.986% | CL/F ([2]; po, 30 mg): 2820 mL/h | Cmax ([2]; po, 30 mg): 386 ng/mL | Tmax ([2]; po, 30 mg): 0.75 h | half-life ([2]; po, 30 mg): 29.4 h | AUC(0-inf) ([2]; po, 90 mg): 32200 ng·h/mL | AUC(0-t) ([2]; po, 90 mg): 18300 ng·h/mL | AUCextrapoloated ([2]; po, 90 mg): 0456% | CL/F ([2]; po, 90 mg): 2830 mL/h | Cmax ([2]; po, 90 mg): 1380 ng/mL | Tmax ([2]; po, 90 mg): 1.25 h | Vd/F ([2]; po, 90 mg): 102 L | half-life ([2]; po, 90 mg): 25.3 h | AUC(0-inf) ([2]; po, 180 mg): 65800 ng·h/mL | AUC(0-t) ([2]; po, 180 mg): 33200 ng·h/mL | AUCextrapoloated ([2]; po, 180 mg): 0.789% | CL/F ([2]; po, 180 mg): 2900 mL/h | Cmax ([2]; po, 180 mg): 2490 ng/mL | Tmax ([2]; po, 180 mg): 1 h | Vd/F ([2]; po, 180 mg): 114 L | half-life ([2]; po, 180 mg): 28 h | AUC(0-inf) ([2]; po, 360 mg): 147000 ng·h/mL | AUC(0-t) ([2]; po, 360 mg): 73200 ng·h/mL | AUCextrapoloated ([2]; po, 360 mg): 0719% | CL/F ([2]; po, 360 mg): 2480 mL/h | Cmax ([2]; po, 360 mg): 5750 ng/mL | Tmax ([2]; po, 360 mg): 0.5 h | half-life ([2]; po, 360 mg): 27.8 h
